Assay results: patent US20160143867A1, “METHODS AND PHARMACEUTICAL COMPOSITIONS FOR TREATING CANCER” (INSERM (INSTITUT NATIONAL DE LA SANTÉ ET DE LA RECHERCHE …, priority 2013, published 2016)

System: glioma-initiating cells (GICs)
Experiment: Cell survival of GICs exposed to GHB
Conditions: exposure of GICs to GHB

## O=C(O)CCCO [GHB, gamma-hydroxybutyrate]
  cell survival: without affecting cell survival
